Test results: US11524966B1 (Valo Early Discovery, Inc., priority 2017, dated 2022)

Biological target: T1, USP28 (USP28-5(1-1077)-TEV-6*His; LifeSensors) (Homo sapiens, UniProt Q96RU2)
T1 construct: construct USP28 (USP28-5(1-1077)-TEV-6*His; LifeSensors); TEV cleavage site (C); 6xHis (C); purchased LifeSensors
T1 sequence (Q96RU2 1-1077): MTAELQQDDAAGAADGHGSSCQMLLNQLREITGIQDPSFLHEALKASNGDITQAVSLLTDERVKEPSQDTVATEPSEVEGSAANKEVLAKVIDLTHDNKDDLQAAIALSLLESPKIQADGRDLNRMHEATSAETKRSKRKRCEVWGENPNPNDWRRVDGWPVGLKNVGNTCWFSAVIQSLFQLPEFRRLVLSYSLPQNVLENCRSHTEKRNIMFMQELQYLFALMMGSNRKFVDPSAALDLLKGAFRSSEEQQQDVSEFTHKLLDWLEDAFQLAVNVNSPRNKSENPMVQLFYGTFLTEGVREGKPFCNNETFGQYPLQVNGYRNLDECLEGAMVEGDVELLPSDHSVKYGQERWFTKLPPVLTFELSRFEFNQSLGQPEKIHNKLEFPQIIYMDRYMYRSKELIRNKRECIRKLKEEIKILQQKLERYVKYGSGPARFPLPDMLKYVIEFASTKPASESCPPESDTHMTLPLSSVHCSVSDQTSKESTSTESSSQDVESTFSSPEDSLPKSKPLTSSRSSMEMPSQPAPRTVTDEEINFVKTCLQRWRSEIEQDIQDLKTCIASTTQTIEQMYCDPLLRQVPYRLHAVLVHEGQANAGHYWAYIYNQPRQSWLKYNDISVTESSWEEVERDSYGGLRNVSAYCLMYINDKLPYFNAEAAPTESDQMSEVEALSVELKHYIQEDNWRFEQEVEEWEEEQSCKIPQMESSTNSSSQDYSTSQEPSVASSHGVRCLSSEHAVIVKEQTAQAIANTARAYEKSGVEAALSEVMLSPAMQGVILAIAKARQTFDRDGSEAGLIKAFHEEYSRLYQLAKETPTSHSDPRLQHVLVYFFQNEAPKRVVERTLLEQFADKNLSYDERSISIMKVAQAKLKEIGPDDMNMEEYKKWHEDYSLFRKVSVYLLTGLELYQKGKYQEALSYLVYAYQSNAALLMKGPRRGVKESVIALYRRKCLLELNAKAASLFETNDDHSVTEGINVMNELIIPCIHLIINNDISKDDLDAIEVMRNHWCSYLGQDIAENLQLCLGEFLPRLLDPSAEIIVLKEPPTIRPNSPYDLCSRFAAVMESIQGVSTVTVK
Assay: Ubiquitin-Rhodamine 110 Assay for USP28 Activity, Example A-1(b)
Type: biochemical
Settings: Ubiquitin-Rhodamine 110 assay, Example A-1(b)
Procedure, shortened: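 Single-point screening used 10 μM compound with 90 min room-temperature incubation; follow-up dose-responses (25 μM top, 3-fold) used 75 pM USP28 1-1077 construct, 30 min compound preincubation, 25 nM Ub-Rh110, 20 min reaction, citric acid quench. Rh110 fluorescence normalised to no-enzyme and DMSO controls; IC50 from 4-parameter logistic fit.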

Row | SMILES | USP28 A-1(b) IC50 range
1 | Cc1ccc2c(N)c(C(=O)N[C@H]3COc4cc(N5C[C@@H](F)[C@@H](N)C5)ccc4C3)sc2n1 (single isomer, unassigned) [Example 3-6] | ++ (0.2-2 μM)
2 | Cc1ccc2c(N)c(C(=O)N[C@H]3COc4cc(N5C[C@@H](N)[C@@H](F)C5)ccc4C3)sc2n1 (single isomer, unassigned) [Example 3-5] | +++ (0.05-0.2 μM)
